Common to all, as to format: binding, SARS-COV-2
Experiment [1] addresses SRBD - omicron.
Experiment [2] deals with SARS-Cov2 SRBD and anti-alpha-Gal antibody (Severe acute respiratory syndrome coronavirus 2, UniProt P0DTC2).
For experiment [3], the system named is Omicron S1/S2 ECD and anti-alpha-Gal antibody.

Read-outs that look alike come from different tables or passages of the source.

A word on the Kd: it is the equilibrium constant for the complex coming apart. On to `COC[C@H](NC(=O)[C@@H](CCCCN)NC(=O)[C@H]1c2ccccc2C(=O)N(CCCNC(=O)Cc2ccc(CNC(=O)[C@@H](NC(=O)[C@@H](CCCCN)NC(=O)[C@H]3c4ccccc4C(=O)N(CCCNC(=O)Cc4ccc(CNC(=O)[C@H](CC5CC5)NC(=O)[C@H]5c6ccccc6C(=O)N(CCCNC(=O)[C@@H](C)NC(=O)Cc6ccc(CNC(=O)[C@H](C)NC(=O)[C@@H](CCCCN)NC(=O)[C@H]7c8ccccc8C(=O)N(CCCNC(=O)Cc8ccc(CNC(=O)[C@H](C)NC(=O)CNC(=O)[C@H]9c%10ccccc%10C(=O)N(CCCNC(=O)Cc%10ccc(CNC(=O)[C@H](C)NC(=O)[C@@H](CCC(=O)O)NC(=O)[C@H]%11c%12ccccc%12C(=O)N(CCCNC(=O)Cc%12ccc(CNC(=O)[C@H](Cc%13ccc(F)cc%13)NC(=O)[C@H]%13c%14ccccc%14C(=O)N(CCCNC(=O)[C@@H](CCC(=O)O)NC(=O)Cc%14ccc(CNC(=O)[C@H](C)NC(=O)CNC(=O)[C@H]%15c%16ccccc%16C(=O)N(CCCN)[C@@H]%15c%15ccc(CCC(=O)O)cc%15)cc%14)[C@@H]%13c%13cccc(Oc%14ccccc%14)c%13)cc%12)[C@@H]%11c%11ccc(CCC(=O)O)cc%11)cc%10)[C@@H]9c9cccnc9)cc8)[C@@H]7c7ccc(CCC(=O)O)cc7)cc6)[C@@H]5c5cccc(Oc6ccccc6)c5)cc4)[C@@H]3c3ccccc3)C(C)C)cc2)[C@@H]1c1ccc(O)cc1)C(=O)NCc1ccc(CC(N)=O)cc1` [Technein 16838-89-7], for which binding in experiment [1] (BLI, SRBD - omicron, global 1:2 fitting) was characterised by a dissociation constant (Kd) of 7 nM.
In turn, `COC[C@H](NC(=O)[C@H]1c2ccccc2C(=O)N(CCCNC(=O)[C@@H](C)NC(=O)Cc2ccc(CNC(=O)[C@H](Cc3ccc(F)cc3)NC(=O)[C@H]3c4ccccc4C(=O)N(CCCNC(=O)CNC(=O)Cc4ccc(CNC(=O)[C@H](Cc5ccc(F)cc5)NC(=O)[C@H]5c6ccccc6C(=O)N(CCCNC(=O)[C@@H](CCC(=O)O)NC(=O)Cc6ccc(CNC(=O)[C@H](C)NC(=O)[C@H]7c8ccccc8C(=O)N(CCCNC(=O)[C@@H](C)N)[C@@H]7c7ccc(CCC(=O)O)cc7)cc6)[C@@H]5c5cccc(Oc6ccccc6)c5)cc4)[C@@H]3c3ccc(O)cc3)cc2)[C@@H]1c1ccc(O)cc1)C(=O)NCc1ccc(CC(=O)NCC(=O)NCCCN2C(=O)c3ccccc3[C@H](C(=O)N[C@@H](CC3CC3)C(=O)NCc3ccc(CC(=O)N[C@H](CCC(=O)O)C(=O)NCCCN4C(=O)c5ccccc5[C@H](C(=O)N[C@@H](C)C(=O)NCc5ccc(CC(=O)NCCCN6C(=O)c7ccccc7[C@H](C(=O)N[C@H](CCCCN)C(=O)N[C@H](C(=O)NCc7ccc(CC(=O)N[C@H](C)C(=O)NCCCN8C(=O)c9ccccc9[C@H](C(=O)N[C@@H](CC9CC9)C(=O)NCc9ccc(CC(N)=O)cc9)[C@H]8c8ccc(CCC(=O)O)cc8)cc7)C(C)C)[C@H]6c6ccccc6)cc5)[C@H]4c4cccnc4)cc3)[C@H]2c2cccnc2)cc1` [Technein 16838-89-8] showed a dissociation constant Kd in experiment [1] of 4 nM. Also, the “antibody repurposing of alpha Gal antibodies (ELISA signal)” value in experiment [2] and in experiment [3] was “significantly lower levels of antibody repurposing” throughout.

The record behind these values is US20260042867A1, “ANTIBODY REPURPOSING” (priority 2022, published 2026).
